{"source": "patent US8114862B2", "about": "“TGR5 modulators and methods of use thereof” (Intercept Pharmaceuticals, Inc., priority 2008, dated 2012)", "key": {"[1]": {"assay": "Biliary secretion and metabolism in bile fistula rat, id and iv infusion", "details": "for Conc. / Secretion: rat bile; for fraction unbound at 4 h: rat, in vivo, 1 μmol/kg/min"}, "[2]": {"target": "T1, PPARδ (Homo sapiens, UniProt Q03181)", "T1 sequence (Q03181 211-439 limits assumed)": "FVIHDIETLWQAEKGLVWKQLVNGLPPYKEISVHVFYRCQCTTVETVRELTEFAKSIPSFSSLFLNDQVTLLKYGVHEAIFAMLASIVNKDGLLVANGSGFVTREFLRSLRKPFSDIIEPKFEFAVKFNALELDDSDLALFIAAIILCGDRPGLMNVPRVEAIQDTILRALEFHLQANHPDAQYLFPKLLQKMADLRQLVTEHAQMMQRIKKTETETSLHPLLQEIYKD", "assay": "PPARδ coactivator recruitment assay"}, "[3]": {"assay": "in vitro", "details": "human, s9"}, "[4]": {"target": "PXR (Homo sapiens, UniProt O75469)", "sequence (O75469 whole entry, species assumed)": "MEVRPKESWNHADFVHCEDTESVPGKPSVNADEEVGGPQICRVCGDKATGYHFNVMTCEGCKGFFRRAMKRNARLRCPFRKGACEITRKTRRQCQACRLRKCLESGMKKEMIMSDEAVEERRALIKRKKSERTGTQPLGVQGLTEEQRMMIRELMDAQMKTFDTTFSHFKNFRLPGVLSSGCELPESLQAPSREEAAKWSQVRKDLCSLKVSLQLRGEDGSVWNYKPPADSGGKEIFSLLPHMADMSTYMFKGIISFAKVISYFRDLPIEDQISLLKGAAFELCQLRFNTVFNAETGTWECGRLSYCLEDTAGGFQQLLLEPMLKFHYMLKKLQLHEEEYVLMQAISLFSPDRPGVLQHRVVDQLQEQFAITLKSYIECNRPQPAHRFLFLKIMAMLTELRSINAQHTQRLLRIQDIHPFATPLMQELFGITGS", "assay": "PXR ligands competition assay (binding assay)"}, "[5]": {"assay": "in vitro", "details": "human, HepG2 cells"}, "[6]": {"system": "Diet-Induced Obesity Mouse Model", "assay": "Diet-induced obesity mouse model (Example 9)", "format": "in vivo"}, "[7]": {"assay": "Stability in human liver microsomes", "details": "liver microsomes"}, "[8]": {"system": "STC-1 cells", "assay": "STC-1 cell experiments (Cox activity, oxygen consumption, ATP/ADP, GLP-1 release)", "format": "cell-based, mouse"}, "[9]": {"system": "ileal explants", "assay": "GLP-1 release ex vivo from ileal explants", "set-up": "species or system mouse", "details": "1 h exposure, explants from 18-weeks HF-fed TGR5-Tg male mice", "description": ". Pellicciari et al., 2007, J. Med. Chem. 50, 4265-4268). cAMP production was performed as described (Sato et al., 2008, J. Med. Chem. 51, 1831; Watanabe et al., 2006, Nature 439, 484). […] ATP/ADP ratio and GLP-1 release were measured according to the manufacturers' instructions (Biovision and Millipore, respectively). Primary brown adipocytes were prepared as previously described (Watanabe et al., 2006, Nature 439, 484), and ileal explants were prepared according to an established method (Cima et al., 2004, J. Exp. Med. 200, 1635-1646).\nPlasma parameters and hepatic and fecal lipid content were measured as described (Mataki et al., 2007, Mol. Cell. Biol. 27, 8330-8339). Hematoxylin and eosin (H&E), Sirius red, and oil red 0 staining were performed as described (Mark al., 2007, Curr. Protoc. Mol. Biol. Chapter 29, Unit 29B, 24), and micrographs were taken on wide-field microscopes (Leica) with a CCD camera. For pancreatic sections, islets were sized and counted from four HE-stained alternated sections spaced of […] using ImageJ software (five animals per group). […] Insulin was extracted after O/N incubation at −20° C. in acid ethanol and measured by ELISA on PBS-diluted samples according to the manufacturer's instructions (Mercodia). GLP-1 release was measured in vitro, ex vivo, and in vivo according to methods known in the art."}, "[10]": {"assay": "Biliary secretion and hepatic metabolism in bile fistula rat after femoral infusion (Example 22)", "format": "in vivo", "details": "after iv administration"}, "[11]": {"assay": "Choleretic effect (bile flow) in bile fistula rat, id and iv infusion", "format": "in vivo", "details": "for SV0: maximum bile secretion rate: 1 (μmol/min)/kg bw over 1 h"}, "[12]": {"details": "duodenal infusion 75-135 min, time 90 min"}, "[13]": {"details": "duodenal infusion 75-135 min, time 120 min"}, "[14]": {"details": "duodenal infusion 75-135 min, time 150 min"}, "[15]": {"details": "duodenal infusion 75-135 min, time 180 min"}, "[16]": {"details": "duodenal infusion 75-135 min, time 210 min"}, "[17]": {"details": "duodenal infusion 75-135 min, time 240 min"}, "[18]": {"details": "duodenal infusion 75-135 min, time 270 min"}, "[19]": {"details": "duodenal infusion 75-135 min, time 300 min"}, "[20]": {"details": "femoral infusion 75-135 min, time 90 min"}, "[21]": {"details": "femoral infusion 75-135 min, time 120 min"}, "[22]": {"details": "femoral infusion 75-135 min, time 150 min"}, "[23]": {"details": "femoral infusion 75-135 min, time 180 min"}, "[24]": {"details": "femoral infusion 75-135 min, time 210 min"}, "[25]": {"details": "femoral infusion 75-135 min, time 240 min"}, "[26]": {"details": "femoral infusion 75-135 min, time 270 min"}}}
{"smiles": "CC[C@H]1[C@@H](O)[C@@H]2[C@H](C[C@H](O)[C@]3(C)[C@@H]([C@H](C)C[C@H](C)C(=O)O)CC[C@@H]23)[C@@]2(C)CC[C@@H](O)C[C@@H]12", "note": "[Ih3e, 6α-ethyl-(23S)-methyl-3α,7α,12α trihydroxy-5β-cholan-24-oic acid]", "values": [{"measurement": "compound secreted into the bile in its unconjugated form", "setting": "[1]; after intravenous or intraduodenal infusion", "result": "more than 90%"}, {"measurement": "biliary secretion", "setting": "[1]; after iv administration", "result": "efficient"}, {"measurement": "recovery in bile after id administration", "setting": "[1]; id vs iv", "result": "slightly lower than the recovery after iv administration"}, {"measurement": "Conc.", "setting": "[1]; [12]", "result": 7, "unit": "µM"}, {"measurement": "Secretion", "setting": "[1]; [12]", "result": 0.0003, "unit": "µmol/kg/min"}, {"measurement": "Conc.", "setting": "[1]; [13]", "result": 690, "unit": "µM"}, {"measurement": "Secretion", "setting": "[1]; [13]", "result": 0.057, "unit": "µmol/kg/min"}, {"measurement": "Conc.", "setting": "[1]; [14]", "result": 1880, "unit": "µM"}, {"measurement": "Secretion", "setting": "[1]; [14]", "result": 0.167, "unit": "µmol/kg/min"}, {"measurement": "Conc.", "setting": "[1]; [15]", "result": 1290, "unit": "µM"}, {"measurement": "Secretion", "setting": "[1]; [15]", "result": 0.150, "unit": "µmol/kg/min"}, {"measurement": "Conc.", "setting": "[1]; [16]", "result": 790, "unit": "µM"}, {"measurement": "Secretion", "setting": "[1]; [16]", "result": 0.077, "unit": "µmol/kg/min"}, {"measurement": "Conc.", "setting": "[1]; [17]", "result": 390, "unit": "µM"}, {"measurement": "Secretion", "setting": "[1]; [17]", "result": 0.033, "unit": "µmol/kg/min"}, {"measurement": "Conc.", "setting": "[1]; [18]", "result": 270, "unit": "µM"}, {"measurement": "Secretion", "setting": "[1]; [18]", "result": 0.026, "unit": "µmol/kg/min"}, {"measurement": "Conc.", "setting": "[1]; [19]", "result": 200, "unit": "µM"}, {"measurement": "Secretion", "setting": "[1]; [19]", "result": 0.015, "unit": "µmol/kg/min"}, {"measurement": "Conc.", "setting": "[1]; [20]", "result": 1900, "unit": "µM"}, {"measurement": "Secretion", "setting": "[1]; [20]", "result": 0.1, "unit": "µmol/kg/min"}, {"measurement": "Conc.", "setting": "[1]; [21]", "result": 3100, "unit": "µM"}, {"measurement": "Secretion", "setting": "[1]; [21]", "result": 0.23, "unit": "µmol/kg/min"}, {"measurement": "Conc.", "setting": "[1]; [22]", "result": 3400, "unit": "µM"}, {"measurement": "Secretion", "setting": "[1]; [22]", "result": 0.31, "unit": "µmol/kg/min"}, {"measurement": "Conc.", "setting": "[1]; [23]", "result": 2300, "unit": "µM"}, {"measurement": "Secretion", "setting": "[1]; [23]", "result": 0.2, "unit": "µmol/kg/min"}, {"measurement": "Conc.", "setting": "[1]; [24]", "result": 1060, "unit": "µM"}, {"measurement": "Secretion", "setting": "[1]; [24]", "result": 0.105, "unit": "µmol/kg/min"}, {"measurement": "Conc.", "setting": "[1]; [25]", "result": 550, "unit": "µM"}, {"measurement": "Secretion", "setting": "[1]; [25]", "result": 0.049, "unit": "µmol/kg/min"}, {"measurement": "Conc.", "setting": "[1]; [26]", "result": 270, "unit": "µM"}, {"measurement": "Secretion", "setting": "[1]; [26]", "result": 0.018, "unit": "µmol/kg/min"}, {"measurement": "fraction unbound at 4 h", "setting": "[1]", "result": "0.94 ± 0.06"}, {"measurement": "fraction unbound at 4 h", "setting": "[1]; iv", "result": 0.93}, {"measurement": "PPARδ Activation EC50", "setting": "[2]", "result": "No activity"}, {"measurement": "half-life", "setting": "[3]", "result": 12.1, "unit": "h"}, {"measurement": "IC50", "setting": "[4]", "result": 110, "unit": "µM"}, {"measurement": "EC50 at 4 h", "setting": "[5]", "result": "> 1000", "unit": "µM"}, {"measurement": "plasma insulin levels", "setting": "[6]; after 10 weeks, chow fed and high fat fed mice vs vehicle", "result": "increased"}, {"measurement": "glucose levels", "setting": "[6]; after 12 weeks, high fat fed mice", "result": "lower"}, {"measurement": "food/water intake", "setting": "[6]; high fat diet vs vehicle", "result": "slight increase"}, {"measurement": "glucose tolerance", "setting": "[6]; high fat fed mice", "result": "improves glucose tolerance"}, {"measurement": "percentage of change in body, organ and adipose tissue weight compared to chow diet", "setting": "[6]; high fat fed mice", "result": "reduced percentage change"}, {"measurement": "blood glucose", "setting": "[6]; high fat fed mice vs vehicle", "result": "lower"}, {"measurement": "heart rate", "setting": "[6]; high fat fed mice vs vehicle", "result": "lower heart rate"}, {"measurement": "liver enzymes (LDH, ASAT, ALAT)", "setting": "[6]; high fat fed mice vs vehicle", "result": "lower"}, {"measurement": "plasma lipids (total cholesterol, HDL-chol, LDL-chol, triglycerides)", "setting": "[6]; high fat fed mice vs vehicle", "result": "lower"}, {"measurement": "insulin levels after a test meal", "setting": "[6]; high fat fed mice vs vehicle, at about 12 minutes", "result": "peaked to higher levels"}, {"measurement": "body weight gain", "setting": "[6]; high fat fed mice, 16 weeks, vs vehicle", "result": "less weight gain"}, {"measurement": "half-life", "setting": "[7]", "result": 32.4, "unit": "h"}, {"measurement": "Cox activity", "setting": "[8]", "result": "cAMP-dependent increase in Cox activity"}, {"measurement": "cellular oxygen consumption", "setting": "[8]", "result": "increase in cellular oxygen consumption"}, {"measurement": "impact on GLP-1 release", "setting": "[8]; prevented by RNA interference or MDL-12-330A", "result": "enhanced by TGR5 overexpression"}, {"measurement": "GLP-1 release ex vivo", "setting": "[9]", "result": "dramatically and dose-dependently induces the release of GLP-1 ex vivo"}, {"measurement": "biliary secretion", "setting": "[10]", "result": "efficient"}, {"measurement": "duration of increased bile flow", "setting": "[11]; duodenal infusion", "result": "at least 3 hours"}, {"measurement": "maximum bile flow rate", "setting": "[11]; duodenal infusion 1 μmol/kg/min, 1 hour", "result": "about 120 μL/min/kg"}, {"measurement": "SV0: maximum bile secretion rate", "setting": "[11]; id infusion", "result": "112 ± 12 (μL/min)/kg bw"}, {"measurement": "bile flow rate", "setting": "[11]; iv (femoral) infusion", "result": "significantly increased the bile flow rate"}, {"measurement": "SV0: maximum bile secretion rate", "setting": "[11]; iv infusion", "result": "(131 ± 11) (μL/min)/kg bw"}]}
